Earlier results on one molecule are cited in patent US7772207B2, “Combination of a CDK inhibitor and CS-682 or a metabolite thereof” (Cyclacel Limited, priority 2003, dated 2010).

For series [1] the following is noted: phase I, patients with a variety of cancers.

In the case of `CCCCCCCCCCCCCCCC(=O)Nc1ccn([C@@H]2O[C@H](CO)[C@@H](O)[C@@H]2C#N)c(=O)n1` [(I), 1-(2-C-cyano-2-dioxy-β-D-arabino-pentofuranosyl)-N^4-palmitoyl cytosine], in series [1], the dose limiting toxicity entry is “myelosuppression” and the tolerability result was “well tolerated”. In addition, the anticancer activity entry with colon cancer (model of colon cancer) is recorded as “strong anticancer activity”. For the same molecule, the “increasing survival and preventing the spread of colon cancer metastases to the liver, compared with gemcitabine or 5-FU” value in the series on colon cancer (same model of colon cancer) is reported as “superior to either gemcitabine or 5-FU”.
